From US5021597A, “Novel acrylic acid salts, a process for their preparation, pharmaceutical compositions containing them and their use in the medicine” (Richter Gedeon Vegyeszeti Gyar Rt., priority 1989, dated 1991) come the findings set out here.

Experiment [1] has as its system gastric injuries induced by acidic alcohol. In words: gastric injuries induced by acidic alcohol (cytoprotection). The class given is in vivo, rat. As to conditions: acidic alcohol gastric injury, female rats, pretreatment 30 min; for % Inhibition at a dose of 10 mg/kg p.o.: Table 2. How it is done:
(1) Assay of gastric injuries induced by acidic alcohol [A. Robert, Gastroenterology, 77, 761-767 (1979)]
Female rats weighing about 120 to 150 g fasted for 24 hours were used in this test. Test compounds suspended with Tween 80 were given orally to the animals through an intragastric tube. After a certain period (pretreatmenttime) acidic alcohol was given through the intragastric tube at a dose or 0.5 ml per 100 g of body weight. The animals were sacrificed after 1 hour, their stomach was removed and incised along the great curve. The length of the reddish-brown strips (haemorrhagic lesions) was measured and the mean total length per stomach was calculated. The biological activity of the test compounds was given compared to the control group.

In experiment [2] the test system is gastric acid secretion. In words: inhibition of gastric acid secretion by using pylorus ligature (Shay). Type of experiment: in vivo, Wistar rat. Particulars: pretreatment 30 min; for % Inhibition in the amount of the acid at a dose of 25 mg/kg p.o.: Table 4, female Wistar rats; for ED50 p.o.: 240 min. As to the method: (2) Assay of the inhibition of gastric acid secretion by using pylorus ligature [Shay et al., Gastroenterology, 5, 43-61 (1945)]
Before ligating the pylorus the test compounds suspended with Tween were given orally at a volume of 0.5 ml per […] of body weight to female Wistar rats fasted previously for 20 hours. The animals were sacrificed 4 hours after the operation, and the amount of the acid in the stomach was measured by titration with 0.01N sodium hydroxide solution in the presence of phenolphtalein indicator. The pH value of the content of the stomach was measured by using a pH-meter (Radelkis, Type OP-211/1).

Experiment [3] concerns Campylobacter pylori. In words: activity against Campylobacter pylori by agar diffusion and agar dilution assays. As to conditions: Helicobacter pylori, Campylobacter pylori cultures isolated from 5 different ulcerous patients, read-out: MIC (minimal inhibitory concentration). Type of experiment: cell-based. How it is done:
The activity of the compounds of the present invention against Campylobacter pylori was investigated by agar diffusion and agar dilution assays. The experiments were carried out with Campylobacter pylori cultures isolated from 5 different ulcerous patients.
(In agar diffusion tests the substance spreads into inoculated agar from a disc or well.)

Counter-ions that a name gives are not always drawn.

For the compound `O=C(O)/C=C/S(=O)(=O)c1ccccc1` [A, bismuth tris [3-phenylsulfonyl-2(E)-propenoate] pentahydrate], the 50% effective dose (ED50) came to 4 mg/kg in experiment [1] (Rattus norvegicus, po, Table 1) and 8.6 mg/kg in experiment [2] (Rattus norvegicus, po, 4 h, Table 3, female Wistar rats).
`O=C(O)/C=C/Sc1ccccc1` [G, bismuth tris [3-phenylthio-2(E)-propenoate] trihydrate]: in experiment [2], the “% Inhibition in the amount of the acid at a dose of 25 mg/kg p.o.” value (“% Inhibition in the amount … of 25 mg/kg p.o.” for short) is reported as 15%.
As for `O=C(O)/C=C/S(=O)(=O)c1ccccc1` [E, (S)-arginine salt of 3-phenylsulfonyl-2(E)-propenoic acid], the “% Inhibition at a dose of 10 mg/kg p.o.” value in experiment [1] was found to be 73%. The “% Inhibition in the amount … of 25 mg/kg p.o.” value in experiment [2] turned out to be 56%.
Turning to `O=C(O)/C=C/S(=O)(=O)c1ccccc1` [F, (S)-lysine salt of 3-phenylsulfonyl-2(E)-propenoic acid], in experiment [1] (Table 1), the ED50 p.o. was 4.1 mg/kg. Also, the “% Inhibition in the amount … of 25 mg/kg p.o.” value in experiment [2] is recorded as 50%.
Turning to “zinc bis [phenylthio-2(Z)-propenoate] hydrate”, the “% Inhibition at a dose of 10 mg/kg p.o.” value in experiment [1] was 61%.
In the case of `O=C(O)/C=C/S(=O)(=O)c1ccccc1` [D, bismuth bis [3-phenylsulfonyl-2(E)-propenoate] chloride hexahydrate], the ED50 p.o. in experiment [1] (Table 1) stood at 3.1 mg/kg; in experiment [2] (Table 3, female Wistar rats), 12.0 mg/kg. Further, the MIC in experiment [3] was 250 to 1000 µg/mL.
`O=C(O)/C=C/S(=O)(=O)c1ccccc1` [C, monoethanolamine salt of 3-phenylsulfonyl-2(E)-propenoic acid]: the ED50 p.o. in experiment [1] (Table 1) is 3.6 mg/kg; in experiment [2] (Table 3, female Wistar rats), 11.0 mg/kg.
The corresponding values for `O.O.O.O.O=C([O-])/C=C/S(=O)(=O)c1ccccc1.O=C([O-])/C=C/S(=O)(=O)c1ccccc1.[Zn+2]` [H, zinc bis [3-phenylsulfonyl-2(E)-propenoate] tetrahydrate] are 3.2 mg/kg and 8.0 mg/kg.

A word on the ED50: it is the midpoint of the dose-response relation. Usually % Inhibition stands for the drop in the measured response relative to a control, in per cent.
